Data set [1] concerns patient derived Ewing sarcoma xenografts. The data set can be described thus: Combination in vivo study in Ewing sarcoma PDX. On the set-up: species or system NSG mice.
The test system of data set [2] is A673, H526 and U20S cells. The data set can be described thus: Immunoblot analyses of DNA damage repair proteins. It is filed as cell-based, human. The note with it: 2μM, 6h and 24h. How it is done: Protein concentrations were determined using the BCA kit (Pierce Biotechnology, Rockford, IL) according to the manufacturer's instructions. Protein lysates (20-100 μg) were electrophoretically resolved by SDS/PAGE, transferred to nitrocellulose membrane, and probed with the indicated primary antibodies: Phospho-ATM (Ser1981) (D6H9) from rabbit (1:500, 5883, Cell Signaling, Danvers, MA), Phospho-BRCA1 (Ser1524) from rabbit (1:500, 9009, Cell Signaling), DNA-PK from rabbit (1:500, 4602, Cell Signaling), Mre11 (31H4) from rabbit (1:500, 4847, Cell Signaling) and Rad50 from rabbit (1:500, 3427, Cell Signaling). Membranes were then incubated with a 1:5,000 dilution of a peroxidase conjugated corresponding secondary antibody. Equal loading of the protein samples was confirmed by parallel western blots for β-actin (1:5,000, ab822750; Abcam). Detection was performed using the ECL-Enhanced Chemiluminescence Detection System (GE Healthcare Biosciences, Pittsburgh, PA) according to the manufacturer's instructions. Blots were visualized by autoradiography.

The subject of data set [3] is human CD34+ hematopoietic stem cells isolated from cord blood. In words: Colony forming unit (CFU) assay. The data set is classed as cell-based. The conditions noted are these: concentration < 5μM. The procedure: We performed the colony forming unit (CFU) assays using human CD34+ hematopoietic stem cells isolated from cord blood to elucidate hematologic toxicity. We noted no effect on BFU-E, GM and mixed colonies at a concentration < 5μM of BO-1055 on CFU assay (Figure 2C).
Colony assays were performed in triplicate in 24 well plates using 1.2% methylcellulose (Dow Chemical, Waterloo, NY), 30% FCS, 57.2 μM β-mercaptoethanol, 2 mM glutamine, 0.5 mM hemin (Sigma, USA), 20 ng/mL interleukin 3 (IL-3), granulocyte colony stimulating factor (G-CSF), c-KIT ligand (KL) and 6 U/mL erythropoietin (Epo). IL-3 and KL and Epo were obtained from R and D Systems (Minneapolis, USA) and G-CSF was from Amgen (Thousand Oaks, CA). Colonies were scored 14 days after plating as per the protocol described earlier.

Consider `CN(C)CCNC(=O)c1cccc(NC(=O)Nc2ccc(N(CCCl)CCCl)cc2)c1` [BO-1055], for which the “tumor regression in combination group compared to single drug groups” value in data set [1] (BO-1055 IV plus Irinotecan IP, 10mg/kg/dose qd x 5 or 5mg/kg/dose qd x 5, day 14) is “significantly greater”. Besides, the “weight loss in combination group compared to single drug groups” value in data set [1] (BO-1055 plus Irinotecan) is given as “No significant weight loss”. For the same compound, in data set [2] (A673, H526 and U20S), the pATM entry was “activation of pATM”. Besides, in data set [2] (U20S), the pBRCA1 entry is recorded as “upregulation of pBRCA1”. In addition, the Rad50 result in data set [2] (sensitive lines (A673, H526)) is “Upregulation of Rad50”. The “effect on BFU-E, GM and mixed colonies” value in data set [3] is recorded as “no effect”.

The values are drawn from publication PMC5190008, “BO-1055, a novel DNA cross-linking agent with remarkable low myelotoxicity shows potent activity in sarcoma models” (Oncotarget, 2016).
